In patent US12110305B2, “Prodrugs of phosphonamide nucleotide analogues and their pharmaceutical use” (priority 2020, dated 2024):

Test system: HIV-1 (IIIB)
Assay: Antiviral (HIV) assay in MT-4 cells
Format: cell-based
Conditions: Human immunodeficiency virus 1, MT4, 120 h; HIV-1 IIIB in MT-4 cells, 5 days incubation, Cell Titer Glo; average of at least two independent experiments
Procedure: Example 104: Antiviral (HIV) Assay in MT-4 Cells
Compounds were tested in a high-throughput 384-well assay format for their ability to inhibit the replication of HIV-1 (IIIB) in MT-4 cells. Compounds were serially diluted (1:3) in DMSO on 384-well polypropylene plates and further diluted 200-fold into complete RPMI media (10% FBS, 1% P/S) using the Biotek Micro Flow and Labcyte ECHO acoustic dispenser. Each plate contained up to 8 test compounds, with negative (no drug) and positive (5 μM AZT) controls. MT-4 cells were pre-treated with 10 μL of either RPMI (mock-infected) or a fresh 1:250 dilution of HIV-1 IIIB concentrated virus stock. Infected and uninfected MT-4 cells were further diluted in complete RPMI media and added to each plate using a Micro Flow dispenser. After 5 days incubation in a humidified and temperature-controlled incubator (37° C.), Cell Titer Glo (Promega) was added to the assay plates and chemiluminescence read using an Envision plate-reader. EC50 values were defined as the compound concentration that causes a 50% decrease in luminescence signal and were calculated using a sigmoidal dose-response model to generate curve fits and are shown in Table 1.

| Compound | EC50 [nM] |
| --- | --- |
| CCCCCCCCOC(=O)C(C)(C)NP(=O)(CO[C@H](C)Cn1cnc2c(N)ncnc21)NC(C)(C)C(=O)OCCCCCCCC [Example 39, Dioctyl 2,2′-(((((1-(6-amino-9H-purin-9-yl)propan-2-yl)oxy)methyl)phosphoryl)bis(azanediyl))(R)-bis(2-methylpropanoate)] | 24 |
| CC(C)COC(=O)C(C)(C)NP(=O)(CO[C@H](C)Cn1cnc2c(N)ncnc21)NC(C)(C)C(=O)OCC(C)C [Example 35, Diisobutyl 2,2′-(((((1-(6-amino-9H-purin-9-yl)propan-2-yl)oxy)methyl)phosphoryl)bis(azanediyl))(R)-bis(2-methylpropanoate)] | 5 |
| CCCCCCOC(=O)C(C)(C)NP(=O)(CO[C@H](C)Cn1cnc2c(NC(=O)OCc3oc(=O)oc3C)ncnc21)NC(C)(C)C(=O)OCCCCCC [Example 33, Dihexyl 2,2′-(((((1-(6-((((5-methyl-2-oxo-1,3-dioxol-4-yl)methoxy)carbonyl)amino)-9H-purin-9-yl)propan-2-yl)oxy)methyl)phosphoryl)bis(azanediyl))(R)-bis(2-methylpropanoate)] | 7 |
| CCCCCCOC(=O)C(C)(C)NP(=O)(CO[C@H](C)Cn1cnc2c(N)ncnc21)N[C@]1(C(=O)OCCCCCC)C[C@H]1CC (stereo partly drawn) [Example 16, Hexyl (1R,2R)-1-((((((R)-1-(6-amino-9H-purin-9-yl)propan-2-yl)oxy)methyl)((1-(hexyloxy)-2-methyl-1-oxopropan-2-yl)amino)phosphoryl)amino)-2-ethylcyclopropane-1-carboxylate] | 35 |
| C[C@H](Cn1cnc2c(N)ncnc21)OCP(=O)(NC(C)(C)C(=O)O[C@H]1C[C@H](C(C)(C)C)C1)NC(C)(C)C(=O)O[C@H]1C[C@H](C(C)(C)C)C1 [Example 52, Bis((1R,3R)-3-(tert-butyl)cyclobutyl) 2,2′-((((((R)-1-(6-amino-9H-purin-9-yl)propan-2-yl)oxy)methyl)phosphoryl)bis(azanediyl))bis(2-methylpropanoate)] | 8 |
| C[C@H](Cn1cnc2c(N)ncnc21)OCP(=O)(NC(C)(C)C(=O)OCC12CC3CC(CC(C3)C1)C2)NC(C)(C)C(=O)OCC12CC3CC(CC(C3)C1)C2 [Example 59, Bis(((1S,3S)-adamantan-1-yl)methyl) 2,2′-((((((R)-1-(6-amino-9H-purin-9-yl)propan-2-yl)oxy)methyl)phosphoryl)bis(azanediyl))bis(2-methylpropanoate)] | 47 |
| C[C@H](Cn1cnc2c(N)ncnc21)OCP(=O)(NC(C)(C)C(=O)OCC1CCC1)NC(C)(C)C(=O)OCC1CCC1 [Example 37, Bis(cyclobutylmethyl) 2,2′-(((((1-(6-amino-9H-purin-9-yl)propan-2-yl)oxy)methyl)phosphoryl)bis(azanediyl))(R)-bis(2-methylpropanoate)] | 4 |
| CCCCCCOC(=O)C(CC)(CC)NP(=O)(CO[C@H](C)Cn1cnc2c(N)ncnc21)NC(CC)(CC)C(=O)OCCCCCC [Example 65, Dihexyl 2,2′-(((((1-(6-amino-9H-purin-9-yl)propan-2-yl)oxy)methyl)phosphoryl)bis(azanediyl))(R)-bis(2-ethylbutanoate)] | > 500 |
| CCCCCCOC(=O)C(C)(C)NP(=O)(CO[C@H](C)Cn1cnc2c(N)ncnc21)NC(C)(C)C(=O)OCCCCCC [Example 1, Dihexyl 2,2′-(((((1-(6-amino-9H-purin-9-yl)propan-2-yl)oxy)methyl)phosphoryl)bis(azanediyl))(R)-bis(2-methylpropanoate)] | 5 |
| C[C@H](Cn1cnc2c(N)ncnc21)OCP(=O)(NC(C)(C)C(=O)O[C@H]1C[C@@H](C(C)(C)C)C1)NC(C)(C)C(=O)O[C@H]1C[C@@H](C(C)(C)C)C1 [Example 51, Bis((1S,3S)-3-(tert-butyl)cyclobutyl) 2,2′-((((((R)-1-(6-amino-9H-purin-9-yl)propan-2-yl)oxy)methyl)phosphoryl)bis(azanediyl))bis(2-methylpropanoate)] | 8 |
| CCC1(CC)CC(OC(=O)C(C)(C)NP(=O)(CO[C@H](C)Cn2cnc3c(N)ncnc32)NC(C)(C)C(=O)OC2CC(CC)(CC)C2)C1 [Example 49, Bis(3,3-diethylcyclobutyl) 2,2′-(((((1-(6-amino-9H-purin-9-yl)propan-2-yl)oxy)methyl)phosphoryl)bis(azanediyl))(R)-bis(2-methylpropanoate)] | 5 |
| C[C@H](Cn1cnc2c(N)ncnc21)OCP(=O)(NC(C)(C)C(=O)OCCC(C)(C)C)NC(C)(C)C(=O)OCCC(C)(C)C [Example 8, Bis(3,3-dimethylbutyl) 2,2′-(((((1-(6-amino-9H-purin-9-yl)propan-2-yl)oxy)methyl)phosphoryl)bis(azanediyl))(R)-bis(2-methylpropanoate)] | 5 |
| C[C@H](Cn1cnc2c(N)ncnc21)OCP(=O)(NC(C)(C)C(=O)OC1CCCCC1)NC(C)(C)C(=O)OC1CCCCC1 [Example 40, Dicyclohexyl 2,2′-(((((1-(6-amino-9H-purin-9-yl)propan-2-yl)oxy)methyl)phosphoryl)bis(azanediyl))(R)-bis(2-methylpropanoate)] | 6 |
| C[C@H](Cn1cnc2c(N)ncnc21)OCP(=O)(NC(C)(C)C(=O)OCC(C)(C)C)NC(C)(C)C(=O)OCC(C)(C)C [Example 5] | 5 |

Second part, the compound after the results:

| EC50 [nM] | Compound |
| --- | --- |
| 9 | CCCCCCCOC(=O)C(C)(C)NP(=O)(CO[C@H](C)Cn1cnc2c(N)ncnc21)NC(C)(C)C(=O)OCCCCCCC [Example 66, Diheptyl 2,2′-(((((1-(6-amino-9H-purin-9-yl)propan-2-yl)oxy)methyl)phosphoryl)bis(azanediyl))(R)-bis(2-methylpropanoate)] |
| > 500 | CCC(CC)COC(=O)C1(NP(=O)(CO[C@H](C)Cn2cnc3c(N)ncnc32)NC2(C(=O)OCC(CC)CC)CC2)CC1 [Example 70, Bis(2-ethylbutyl) 1,1′-(((((1-(6-amino-9H-purin-9-yl)propan-2-yl)oxy)methyl)phosphoryl)bis(azanediyl))(R)-bis(cyclopropane-1-carboxylate)] |
| 5 | C[C@H](Cn1cnc2c(N)ncnc21)OCP(=O)(NC(C)(C)C(=O)OC1CC2(CCCCC2)C1)NC(C)(C)C(=O)OC1CC2(CCCCC2)C1 (stereo partly drawn) [Example 86, Di(spiro[3.5]nonan-2-yl) 2,2′-(((((1-(6-amino-9H-purin-9-yl)propan-2-yl)oxy)methyl)phosphoryl)bis(azanediyl))(R)-bis(2-methylpropanoate)] |
| > 500 | CCCCCCOC(=O)C(C)(C)NP(=O)(CO[C@H](C)Cn1cnc2c(N)ncnc21)NC(C)(C)C(=O)OCC12CC(C1)C2 (stereo partly drawn) [Example 77, Bicyclo[1.1.1]pentan-1-ylmethyl 2-((((((R)-1-(6-amino-9H-purin-9-yl)propan-2-yl)oxy)methyl)((1-(hexyloxy)-2-methyl-1-oxopropan-2-yl)amino)phosphoryl)amino)-2-methylpropanoate] |
| 11 | CCCCCCOC(=O)C(C)(C)NP(=O)(CO[C@H](C)Cn1cnc2c(NC(=O)[C@H]3CCC(=O)O3)ncnc21)NC(C)(C)C(=O)OCCCCCC [Example 96, Dihexyl 2,2′-((((((R)-1-(6-((R)-5-oxotetrahydrofuran-2-carboxamido)-9H-purin-9-yl)propan-2-yl)oxy)methyl)phosphoryl)bis(azanediyl))bis(2-methylpropanoate)] |
| 91 | CCCCCCOC(=O)C(C)(C)NP(=O)(CO[C@H](C)Cn1cnc2c(NC(=O)CCCC(=O)OCc3oc(=O)oc3C)ncnc21)NC(C)(C)C(=O)OCCCCCC [Example 99, (5-Methyl-2-oxo-1,3-dioxol-4-yl)methyl 5-[[9-[(2R)-2-[bis[(2-hexoxy-1,1-dimethyl-2-oxo-ethyl)amino]phosphorylmethoxy]propyl]purin-6-yl]amino]-5-oxo-pentanoate] |
| 130 | CCCCCCOC(=O)C(C)(C)NP(=O)(CO[C@H](C)Cn1cnc2c(NC(=O)OCCOC(=O)c3ccccc3)ncnc21)NC(C)(C)C(=O)OCCCCCC [Example 94, Dihexyl 2,2′-(((((1-(6-(((2-(benzoyloxy)ethoxy)carbonyl)amino)-9H-purin-9-yl)propan-2-yl)oxy)methyl)phosphoryl)bis(azanediyl))(R)-bis(2-methylpropanoate)] |
| 3 | C[C@H](Cn1cnc2c(N)ncnc21)OCP(=O)(NC(C)(C)C(=O)OCC1CCC(F)(F)CC1)NC(C)(C)C(=O)OCC1CCC(F)(F)CC1 [Example 88, Bis((4,4-difluorocyclohexyl)methyl) 2,2′-(((((1-(6-amino-9H-purin-9-yl)propan-2-yl)oxy)methyl)phosphoryl)bis(azanediyl))(R)-bis(2-methylpropanoate)] |
| 23 | CCC[C@H]1CC[C@H](COC(=O)C(C)(C)NP(=O)(CO[C@H](C)Cn2cnc3c(N)ncnc32)NC(C)(C)C(=O)OC[C@H]2CC[C@H](CCC)CC2)CC1 [Example 92] |
| 271 | CCCCCCOC(=O)C(C)(C)NP(=O)(CO[C@H](C)Cn1cnc2c(N)ncnc21)NC(C)(C)C(=O)OCC(C)(C)OC (stereo partly drawn) [Example 79, Hexyl 2-((((((R)-1-(6-amino-9H-purin-9-yl)propan-2-yl)oxy)methyl)((1-(2-methoxy-2-methylpropoxy)-2-methyl-1-oxopropan-2-yl)amino)phosphoryl)amino)-2-methylpropanoate] |
| 9 | CC(C)CCCCOC(=O)C(C)(C)NP(=O)(CO[C@H](C)Cn1cnc2c(N)ncnc21)NC(C)(C)C(=O)OCCCCC(C)C [Example 68, Bis(5-methylhexyl) 2,2′-(((((1-(6-amino-9H-purin-9-yl)propan-2-yl)oxy)methyl)phosphoryl)bis(azanediyl))(R)-bis(2-methylpropanoate)] |
